Test results taken from US20210369853A1, “TARGETED PROTEASE DEGRADATION PLATFORM” (EUBULUS BIOTHERAPEUTICS INC., priority 2018, published 2021).

Test system: Human Monocytic Leukemia MV4-11
Test: Cell proliferation experiment (Alarm blue, 72 h, EC50)
Assay type: cell-based
Conditions: Homo sapiens, MV4-11, MV4;11 cells
Description: (2.1) Cell Proliferation Experiment:
Reagents: RPMI-1640 medium, McCoy's 5A medium, IMDM medium, MEM medium, L-15 medium, fetal bovine serum, Penicillin-Streptomycin double antibody, trypsin, etc., 2-mercaptoethanol, NEAA, pyruvate, etc.
The cells were cultured in conventional ways, and the cells should be passed at least for at least 2 generations before plating. Cells at the logarithmic growth phase are collected, prepared into single cell suspensions and counted. The concentration of cells was adjusted to the desired concentration, and cells were inoculated into a 96-well cell culture plate at 100 μl per well. 100 μL of complete medium of the test compound were added to each well, set up 2 duplicates for each concentration, and diluted with a 5-fold gradient, and continue to culture for 72 h. All cells were subjected to EC50 test for corresponding samples.
The fluorescence intensity of each well was detected using the Alarm blue method, and EC50 was calculated.
EC50 was calculated according to the following formula:
Y=Max+(Min−Max)/[1+(X/EC50)×Slope]
wherein Min, Max and Slope represent the minimum, maximum and slope respectively.

| EC50 [nM] | Structure (SMILES) |
| --- | --- |
| 10 to 100 | CC[C@@H]1C(=O)N(C)c2cnc(Nc3ccc(C(=O)NCCOCCOCCOCCNCCCCCC(=O)Nc4cccc5c4CN(C4CCC(=O)NC4=O)C5=O)cc3OC)nc2N1C1CCCC1 (stereo partly shown) [UB-180649] |
| 10 to 100 | CC[C@@H]1C(=O)N(C)c2cnc(Nc3ccc(C(=O)NCCOCCNCCCCCCCC(=O)Nc4cccc5c4CN(C4CCC(=O)NC4=O)C5=O)cc3OC)nc2N1Cc1ccc(Br)cc1 (stereo partly shown) [UB-180652] |
| 100 to 1000 | CC[C@@H]1C(=O)N(C)c2cnc(Nc3ccc(C(=O)NCCOCCNCCCCCCC(=O)Nc4cccc5c4CN(C4CCC(=O)NC4=O)C5=O)cc3OC)nc2N1Cc1ccc(Br)cc1 (stereo partly shown) [UB-180653] |
| 100 to 1000 | Cc1sc2c(c1C)C(c1ccc(Cl)cc1)=N[C@@H](CC(=O)NCCOCCNCCCC(=O)Nc1cccc3c1CN(C1CCC(=O)NC1=O)C3=O)c1nnc(C)n1-2 (stereo partly shown) [UB-180656] |
| 10 to 100 | CC[C@@H]1C(=O)N(C)c2cnc(Nc3ccc(C(=O)NCCOCCNCCCCC(=O)Nc4cccc5c4CN(C4CCC(=O)NC4=O)C5=O)cc3OC)nc2N1C1CCCC1 (stereo partly shown) [UB-180657] |
| 10 to 100 | CC[C@@H]1C(=O)N(C)c2cnc(Nc3ccc(C(=O)NCCOCCNCCCC(=O)Nc4cccc5c4CN(C4CCC(=O)NC4=O)C5=O)cc3OC)nc2N1C1CCCC1 (stereo partly shown) [UB-180662] |
| 10 to 100 | CC[C@@H]1C(=O)N(C)c2cnc(Nc3ccc(C(=O)NCCOCCOCCOCCNCC(=O)Nc4cccc5c4CN(C4CCC(=O)NC4=O)C5=O)cc3OC)nc2N1Cc1ccc(Br)cc1 (stereo partly shown) [UB-180664] |
| 100 to 1000 | COc1cc(C(=O)NCCCNCCCCC(=O)Nc2cccc3c2CN(C2CCC(=O)NC2=O)C3=O)ccc1Nc1ncc2c(n1)N(Cc1ccc(Br)cc1)CC(C)(C)C(=O)N2C (stereo not shown) [UB-180670] |
| 100 to 1000 | COc1cc(C(=O)NCCCNCCCCCCCC(=O)Nc2cccc3c2CN(C2CCC(=O)NC2=O)C3=O)ccc1Nc1ncc2c(n1)N(Cc1ccc(Br)cc1)CC(C)(C)C(=O)N2C (stereo not shown) [UB-180671] |
| 100 to 1000 | COc1cc(C(=O)NCCOCCNCCCCCCC(=O)Nc2cccc3c2CN(C2CCC(=O)NC2=O)C3=O)ccc1Nc1ncc2c(n1)N(Cc1ccc(Br)cc1)CC(C)(C)C(=O)N2C (stereo not shown) [UB-180672] |
| 10 to 100 | CC[C@@H]1C(=O)N(C)c2cnc(Nc3ccc(C(=O)NCc4cn(CCNCCCC(=O)Nc5cccc6c5CN(C5CCC(=O)NC5=O)C6=O)nn4)cc3OC)nc2N1Cc1ccc(Br)cc1 (stereo partly shown) [UB-180676] |
| 100 to 1000 | COc1cc(C(=O)NCCCNCCCC(=O)Nc2cccc3c2CN(C2CCC(=O)NC2=O)C3=O)ccc1Nc1ncc2c(n1)N(Cc1ccc(Br)cc1)CC(C)(C)C(=O)N2C (stereo not shown) [UB-180677] |
| 10 to 100 | CC[C@@H]1C(=O)N(C)c2cnc(Nc3ccc(C(=O)NCc4cn(CCNCCC(=O)Nc5cccc6c5CN(C5CCC(=O)NC5=O)C6=O)nn4)cc3OC)nc2N1Cc1ccc(Br)cc1 (stereo partly shown) [UB-180679] |
| 10 to 100 | CC[C@@H]1C(=O)N(C)c2cnc(Nc3ccc(C(=O)NCCNCCC(=O)Nc4cccc5c4CN(C4CCC(=O)NC4=O)C5=O)cc3OC)nc2N1C1CCCC1 (stereo partly shown) [UB-180682] |
| > 1000 | CC[C@@H]1C(=O)N(C)c2cnc(Nc3ccc(C(=O)NCCNCCC(=O)Nc4cccc5c4CN(C4CCC(=O)NC4=O)C5=O)cc3OC)nc2N1Cc1ccc(Br)cc1 (stereo partly shown) [UB-180683] |
| 10 to 100 | CC[C@@H]1C(=O)N(C)c2cnc(Nc3ccc(C(=O)NC4CCN(CCNCCCCC(=O)Nc5cccc6c5CN(C5CCC(=O)NC5=O)C6=O)CC4)cc3OC)nc2N1C1CCCC1 (stereo partly shown) [UB-180684] |
| 10 to 100 | CC[C@@H]1C(=O)N(C)c2cnc(Nc3ccc(C(=O)NC4CCN(CCNCCCCC(=O)Nc5cccc6c5CN(C5CCC(=O)NC5=O)C6=O)CC4)cc3OC)nc2N1Cc1ccc(Br)cc1 (stereo partly shown) [UB-180685] |
| 10 to 100 | CC[C@@H]1C(=O)N(C)c2cnc(Nc3ccc(C(=O)NC4CCN(CCNCCCC(=O)Nc5cccc6c5CN(C5CCC(=O)NC5=O)C6=O)CC4)cc3OC)nc2N1C1CCCC1 (stereo partly shown) [UB-180687] |
| 10 to 100 | CC[C@@H]1C(=O)N(C)c2cnc(Nc3ccc(C(=O)NC4CCN(CCNCCCC(=O)Nc5cccc6c5CN(C5CCC(=O)NC5=O)C6=O)CC4)cc3OC)nc2N1Cc1ccc(Br)cc1 (stereo partly shown) [UB-180688] |
| 10 to 100 | CC[C@@H]1C(=O)N(C)c2cnc(Nc3ccc(C(=O)NCCNCCCC(=O)Nc4cccc5c4CN(C4CCC(=O)NC4=O)C5=O)cc3OC)nc2N1C1CCCC1 (stereo partly shown) [UB-180689] |
| 10 to 100 | CC[C@@H]1C(=O)N(C)c2cnc(Nc3ccc(C(=O)NCCNCCCC(=O)Nc4cccc5c4CN(C4CCC(=O)NC4=O)C5=O)cc3OC)nc2N1Cc1ccc(Br)cc1 (stereo partly shown) [UB-180690] |
| 100 to 1000 | CC[C@@H]1C(=O)N(C)c2cnc(Nc3ccc(C(=O)NCc4cn(CCNCC(=O)Nc5cccc6c5CN(C5CCC(=O)NC5=O)C6=O)nn4)cc3OC)nc2N1Cc1ccc(Br)cc1 (stereo partly shown) [UB-180692] |
| 10 to 100 | CC[C@@H]1C(=O)N(C)c2cnc(Nc3ccc(C(=O)NC4CCN(CCNCCCCC(=O)Nc5cccc6c5CN(C5CCC(=O)NC5=O)C6=O)C4)cc3OC)nc2N1C1CCCC1 (stereo partly shown) [UB-180693] |

| EC50 [nM] | Structure (SMILES) |
| --- | --- |
| 100 to 1000 | CC[C@@H]1C(=O)N(C)c2cnc(Nc3ccc(C(=O)NCCNCC(=O)Nc4cccc5c4CN(C4CCC(=O)NC4=O)C5=O)cc3OC)nc2N1C1CCCC1 (stereo partly shown) [UB-180694] |
| 10 to 100 | CC[C@@H]1C(=O)N(C)c2cnc(Nc3ccc(C(=O)NCCNCC(=O)Nc4cccc5c4CN(C4CCC(=O)NC4=O)C5=O)cc3OC)nc2N1Cc1ccc(Cl)s1 (stereo partly shown) [UB-180695] |
| 10 to 100 | CC[C@@H]1C(=O)N(C)c2cnc(Nc3ccc(C(=O)NCCOCCNCCC(=O)Nc4cccc5c4CN(C4CCC(=O)NC4=O)C5=O)cc3OC)nc2N1C1CCCC1 (stereo partly shown) [UB-180696] |
| 100 to 1000 | COc1cc(C(=O)NCCOCCNCCC(=O)Nc2cccc3c2CN(C2CCC(=O)NC2=O)C3=O)ccc1Nc1ncc2c(n1)N(C(C)C)[C@H](C)C(=O)N2C (stereo partly shown) [UB-180697] |
| 10 to 100 | CC[C@@H]1C(=O)N(C)c2cnc(Nc3ccc(C(=O)NCCCNCCOCC(=O)Nc4cccc5c4CN(C4CCC(=O)NC4=O)C5=O)cc3OC)nc2N1C1CCCC1 (stereo partly shown) [UB-180698] |
| 100 to 1000 | CC[C@@H]1c2c(C#N)ncn2-c2cnc(Nc3ccc(C(=O)NCCOCCOCCOCCNCCC(=O)Nc4cccc5c4CN(C4CCC(=O)NC4=O)C5=O)cc3OC)nc2N1C1CCCC1 (stereo partly shown) [UB-180700] |
| 10 to 100 | COc1cc(C(=O)NCCOCCOCCOCCNCCC(=O)Nc2cccc3c2CN(C2CCC(=O)NC2=O)C3=O)ccc1Nc1ncc2c(n1)N(C(C)C)[C@H](C)C(=O)N2C (stereo partly shown) [UB-180702] |
| 10 to 100 | CC[C@@H]1C(=O)N(C)c2cnc(Nc3ccc(C(=O)NCCOCCNCC(=O)Nc4cccc5c4CN(C4CCC(=O)NC4=O)C5=O)cc3OC)nc2N1C1CCCC1 (stereo partly shown) [UB-180705] |
| 100 to 1000 | CC[C@@H]1CN(C)c2cnc(Nc3ccc(C(=O)NCCOCCNCCC(=O)Nc4cccc5c4CN(C4CCC(=O)NC4=O)C5=O)cc3OC)nc2N1C(C)C (stereo partly shown) [UB-180706] |
| 10 to 100 | CC[C@@H]1C(=O)N(C)c2cnc(Nc3ccc(C(=O)NCCCNCCN(C)CC(=O)Nc4cccc5c4CN(C4CCC(=O)NC4=O)C5=O)cc3OC)nc2N1C1CCCC1 (stereo partly shown) [UB-180708] |
| 100 to 1000 | CC[C@@H]1C(=O)N(C)c2cnc(Nc3ccc(C(=O)NCCOCCOCCOCCN(CCC(=O)Nc4cccc5c4CN(C4CCC(=O)NC4=O)C5=O)C(=O)OCc4ccc(NC(=O)[C@H](CCCNC(N)=O)NC(=O)[C@@H](NC(=O)CCCCCN5C(=O)C=CC5=O)C(C)C)cc4)cc3OC)nc2N1C1CCCC1 (stereo partly shown) [UB-180709] |
| 10 to 100 | CC[C@@H]1C(=O)N(C)c2cnc(Nc3ccc(C(=O)NCCOCCOCCOCCNCCC(=O)Nc4cccc5c4CN(C4CCC(=O)NC4=O)C5=O)cc3OC)nc2N1C(C)C (stereo partly shown) [UB-180710] |
| 10 to 100 | CC[C@@H]1C(=O)N(C)c2cnc(Nc3ccc(C(=O)NC4CCN(CCNCCOCC(=O)Nc5cccc6c5CN(C5CCC(=O)NC5=O)C6=O)CC4)cc3OC)nc2N1C(C)C (stereo partly shown) [UB-180712] |
| 10 to 100 | CC[C@@H]1C(=O)N(C)c2cnc(Nc3ccc(C(=O)NC4CCN(CCOCCNCC(=O)Nc5cccc6c5CN(C5CCC(=O)NC5=O)C6=O)C4)cc3OC)nc2N1C1CCCC1 (stereo partly shown) [UB-180713] |
| 10 to 100 | CC[C@@H]1C(=O)N(C)c2cnc(Nc3ccc(C(=O)NCc4cn(CCNCCCC(=O)Nc5cccc6c5CN(C5CCC(=O)NC5=O)C6=O)nn4)cc3OC)nc2N1Cc1ccc(Cl)s1 (stereo partly shown) [UB-180715] |
| < 10 | CC[C@@H]1C(=O)N(C)c2cnc(Nc3ccc(C(=O)NCc4cn(CCN(C)CCCC(=O)Nc5cccc6c5CN(C5CCC(=O)NC5=O)C6=O)nn4)cc3OC)nc2N1C1CCCC1 (stereo partly shown) [UB-180716] |
| 100 to 1000 | CC[C@@H]1c2c(C#N)ncn2-c2cnc(Nc3ccc(C(=O)NCc4cn(CCNCCC(=O)Nc5cccc6c5CN(C5CCC(=O)NC5=O)C6=O)nn4)cc3OC)nc2N1C1CCCC1 (stereo partly shown) [UB-180723] |
| 100 to 1000 | O=C1CCC(N2Cc3c(NC(=O)CCNCCn4cc(CNC(=O)c5ccc(Nc6ncc7c(n6)-c6ccc(Cl)cc6C(c6c(F)cccc6F)=NC7)cc5)nn4)cccc3C2=O)C(=O)N1 (stereo not shown) [UB-180726] |
| 100 to 1000 | O=C1CCC(N2Cc3c(NC(=O)CCNCCOCCOCCOCCNC(=O)c4ccc(Nc5ncc6c(n5)-c5ccc(Cl)cc5C(c5c(F)cccc5F)=NC6)cc4)cccc3C2=O)C(=O)N1 (stereo not shown) [UB-180728] |
| 100 to 1000 | O=C1CCC(N2Cc3c(NC(=O)CCNCCn4cc(CNC(=O)[C@]5(Cc6cccc(Nc7nccs7)n6)CC[C@@H](Oc6cccc(Cl)c6F)CC5)nn4)cccc3C2=O)C(=O)N1 (stereo partly shown) [UB-180729] |
| 100 to 1000 | O=C1CCC(N2Cc3c(NC(=O)CCNCCOCCOCCOCCNC(=O)[C@]4(Cc5cccc(Nc6nccs6)n5)CC[C@@H](Oc5cccc(Cl)c5F)CC4)cccc3C2=O)C(=O)N1 (stereo partly shown) [UB-180731] |
| 100 to 1000 | O=C1CCC(N2Cc3c(NC(=O)COCCNCCn4cc(CNC(=O)c5ccc(Nc6ncc7c(n6)-c6ccc(Cl)cc6C(c6c(F)cccc6F)=NC7)cc5)nn4)cccc3C2=O)C(=O)N1 (stereo not shown) [UB-180732] |
| 100 to 1000 | O=C1CCC(N2Cc3c(NC(=O)CNCCOCCN4CCC(NC(=O)c5ccc(Nc6ncc7c(n6)-c6ccc(Cl)cc6C(c6c(F)cccc6F)=NC7)cc5)CC4)cccc3C2=O)C(=O)N1 (stereo not shown) [UB-180735] |
